Key:
Type in all cases: cell-based, human
[1] = test system: S100A7/psoriasin; test: Cytokine mix-induced keratinocyte inflammation model, S100A7 mRNA expression (real-time PCR); settings: NHEK; for S100A7, % compared to the control treated only with cytokine mix: 2 h pre-treatment, cytokine mix 24 h
Experimental: (§1) Two assays were performed to investigate the effect of selected compounds of this invention in an inflammation model with human skin keratinocytes.
(§2) In this model, the association of 3 cytokines that induce a strong synergistic effect on keratinocytes in culture (Boniface K, Diveu C, Morel F, Pedretti N, Froger J, Ravon E, Garcia M, Venereau E, Preisser L, Guignouard E, Guillet G, Dagregorio G, Pene J, Moles J P, Yssel H, Chevalier S, Bernard F X, Gascan H, Lecron J C. Oncostatin M secreted by skin infiltrating T lymphocytes is a potent keratinocyte activator involved in skin inflammation. J Immunol. 2007 Apr. 1;178(7):4615-22), is used to measure the expression of selected markers for keratinocyte inflammation: the antibacterial/chemoattractive markers S100A7/psoriasin and defensin HBD2/4
(§3) Normal human epidermal keratinocytes (NHEK pool K015, 3e passage) were cultured under the following conditions: • Culture: 37° C., 5% CO2 • Culture medium: SFM (Invitrogen 17005075) • Epidermal Growth Factor 0.25 ng/ml and pituitary extract 25 μg/ml • (EGF, EP, Invitrogen 17005075) • Gentamycine 25 μg/ml (Sigma G1397) • Assay medium: SFM without EGF and pituitary extract (Invitrogen 17005075)
(§4) Keratinocytes were pre-cultivated in culture medium. At confluence, the culture medium was changed into assay medium (SFM without EGF and pituitary extract) containing or not (control) the test compounds and the cells were pre-treated for 2 h at 37° C. and 5% CO2. At the end of the pre-treatment, the cytokine mix consisting of oncostatin M (OSM), IL-17 and […], was added to the cultures for 24 h at 37° C. and 5% CO2 (a non-treated and non-stimulated control was run in parallel). At the end of the experiment, the cells were washed in PBS buffer (Invitrogen 14190094) and immediately frozen at −80° C. with 300 μl per well of Tri-reagent (Sigma T9424).
(§5) Primers couples allowing the amplification of a specific PCR product from each selected marker were used. Liver glyceraldehyde 3-phosphate dehydrogenase (G3PDH) was used as a reference marker in this experiment.
(§6) RNA Extraction and Reverse Transcription • Extraction of total RNA by Tri-Reagent according to the protocol recommended by the supplier. • Elimination of contaminant DNA by DNAse treatment using the “DNA-free” system (Ambion). • Reverse-transcription of mRNA in the presence of oligo(dT) and Superscript II reversetranscriptase (Invitrogen).
(§7) The PCR reactions (Polymerase Chain Reactions) were performed using the LightCycler® system (Roche Molecular Systems Inc.) according to the protocol recommended by the supplier. This system allows rapid and powerful PCR reactions.
(§8) The reaction mix (10 μl final) was added as follows: • 2.5 μl of cDNA diluted at 1/10e. • primers forward and reverse • reagent mix (Roche) containing tag DNA polymerase, SYBR Green I and MgCl2.
(§9) The incorporation of fluorescence in amplified DNA was measured continuously during the PCR cycles. […] The RE value was expressed in arbitrary units (AU) according to the formula:
(§10) (½ number of cycles)×10^6

[2] = test system: HBD2; test: Cytokine mix-induced keratinocyte inflammation model, HBD2 mRNA expression (real-time PCR); settings: NHEK; for HBD2, % compared to the control treated only with cytokine mix: 2 h pre-treatment, cytokine mix 24 h
Experimental: as §1, §2, §3, §4, §5
Defensin beta 4 (DEFB4), beta-defensin 2 (hBD2, DEFB2);
skin-antimicrobial peptide 1 (SAP1) HBD2 NM_004942
as §6, §7, §8, §9, §10

[3] = test system: Interleukin (IL)6; test: TNFα-stimulated HaCaT keratinocytes, release of IL6 into the medium (ELISA), Experiment 1
Experimental: (§11) In a second assay, the human keratinocyte cell line HaCat was stimulated with the inflammatory cytokine TNFα and the release of Interleukin (IL)6 into the medium was analysed with a commercially available “Enzyme Linked Immunosorbent Assay” (ELISA).
(§12) HaCaT cells were cultivated under the conditions explained in detail in Wertz et al., Free Radical Biology & Medicine, Vol. 37, No. 5, pp. 654-670, 2004. Cells were pre-cultivated in medium containing with lycopene at a concentration of 1 μmol/L for 48 h to give the cells sufficient time to accumulate lycopene. Lycopene was solubilized in a stock solution with Tetrahydrofuran (THF) and diluted into the medium such that the end concentration was 0.1% THF. After the pre-incubation period, cells were stimulated with 10 μg/ml TNFα for 5 h, after which the medium was collected and frozen. Cells were harvested by trypsinisation and counted according to standard procedures. Il6 levels in the medium were standardized to the number of cells in the wells and expressed as pg/10^6 cells

[4] = test system: Interleukin (IL)6; test: HaCaT keratinocytes, base line production of IL6 (no TNFα), Experiment 2
Experimental: as §11
as §12, with “After the pre-incubation period, cells were stimulated with 10 μg/ml TNFα for 5 h, after which the medium was collected and frozen.” left out
This experiment was performed to investigate whether two other carotenoid representatives, beta-carotene and beta-cryptoxanthin, are able to reduce the general base line production of inflammatory mediators of normal skin

Row | Compound | S100A7, % compared to the control treated only with cytokine mix ([1]; 0.2 μmol/L) | S100A7, % compared to the control treated only with cytokine mix ([1]; 1.0 μmol/L) | S100A7, % compared to the control treated only with cytokine mix ([1]; 5.0 μmol/L) | Effect on cytokine mix induction of S100A7 mRNA (in words) [1] | HBD2, % compared to the control treated only with cytokine mix ([2]; 0.2 μmol/L) | HBD2, % compared to the control treated only with cytokine mix ([2]; 1.0 μmol/L) | HBD2, % compared to the control treated only with cytokine mix ([2]; 5.0 μmol/L) | Effect on cytokine mix induction of HBD2/4 mRNA (in words) [2] | Effect on reaction of keratinocytes to pro-inflammatory stimulus (in words) [3] | Effect on base line IL6 secretion (in words) [4] | IL6 pg/10^6 cells ± SD ([4]; 0.1 μmol/L) | IL6 pg/10^6 cells ± SD ([4]; 0.25 μmol/L) | IL6 pg/10^6 cells ± SD ([4]; 1.0 μmol/L) | IL6 pg/10^6 cells ± SD ([4]; 3.0 μmol/L) | IL6 pg/10^6 cells ± SD ([4]; 0.5 μmol/L)
1 | (−)-Epigallocatechin gallate [EGCG] | 66% | 20% | 27% | strongly inhibited | 59% | 43% | 33% | strongly inhibited |  |  |  |  |  |  | 
2 | CC(C)=CCC/C(C)=C/C=C/C(C)=C/C=C/C(C)=C/C=C/C=C(C)/C=C/C=C(C)/C=C/C=C(\C)CCC=C(C)C [Lycopene, lycopene] |  |  |  |  |  |  |  |  | significantly reduce |  |  |  |  |  | 
3 | Oc1ccc(C=Cc2cc(O)cc(O)c2)cc1 [Resveratrol, resveratrol] | 68% | 66% | 53% | strongly inhibited | 61% | 51% | 47% | strongly inhibited |  |  |  |  |  |  | 
4 | CC1=C(/C=C/C(C)=C/C=C/C(C)=C/C=C/C=C(C)/C=C/C=C(C)/C=C/C2=C(C)CCCC2(C)C)C(C)(C)CCC1 [Beta-carotene, beta-carotene] |  |  |  |  |  |  |  |  |  | can reduce the base line level | 315.86 pg/10^6 cells | 225.15 pg/10^6 cells | 241.8 pg/10^6 cells | 291.85 pg/10^6 cells | 
5 | CC1=C(/C=C/C(C)=C/C=C/C(C)=C/C=C/C=C(C)/C=C/C=C(C)/C=C/C2=C(C)C[C@@H](O)CC2(C)C)C(C)(C)CCC1 [Beta-cryptoxanthin, beta-cryptoxanthin] |  |  |  |  |  |  |  |  |  | moderate effect | 264.76 pg/10^6 cells | 268.46 pg/10^6 cells |  |  | 286.77 pg/10^6 cells
6 | OCCc1ccc(O)c(O)c1 [Hydroxytyrosol, hydroxytyrosol] | 60% | 57% | 49% |  | 50% | 51% | 40% |  |  |  |  |  |  |  | 
